The IC50 is the concentration needed to halve the response being measured.

This is an account of results in patent US8183272B2, “Indanyl compounds” (Daiichi Sankyo Company, Limited, priority 2008, dated 2012).

A value given as a limit tells only on which side of the number the result lay.

The experiment addresses T1, human calcium-sensing receptor (CaSR) (Homo sapiens, UniProt P41180).
T1 construct: expressed in transfected cells; host or cells: CHO cells (CHO/hCaSR)
T1 sequence (P41180 20-1078): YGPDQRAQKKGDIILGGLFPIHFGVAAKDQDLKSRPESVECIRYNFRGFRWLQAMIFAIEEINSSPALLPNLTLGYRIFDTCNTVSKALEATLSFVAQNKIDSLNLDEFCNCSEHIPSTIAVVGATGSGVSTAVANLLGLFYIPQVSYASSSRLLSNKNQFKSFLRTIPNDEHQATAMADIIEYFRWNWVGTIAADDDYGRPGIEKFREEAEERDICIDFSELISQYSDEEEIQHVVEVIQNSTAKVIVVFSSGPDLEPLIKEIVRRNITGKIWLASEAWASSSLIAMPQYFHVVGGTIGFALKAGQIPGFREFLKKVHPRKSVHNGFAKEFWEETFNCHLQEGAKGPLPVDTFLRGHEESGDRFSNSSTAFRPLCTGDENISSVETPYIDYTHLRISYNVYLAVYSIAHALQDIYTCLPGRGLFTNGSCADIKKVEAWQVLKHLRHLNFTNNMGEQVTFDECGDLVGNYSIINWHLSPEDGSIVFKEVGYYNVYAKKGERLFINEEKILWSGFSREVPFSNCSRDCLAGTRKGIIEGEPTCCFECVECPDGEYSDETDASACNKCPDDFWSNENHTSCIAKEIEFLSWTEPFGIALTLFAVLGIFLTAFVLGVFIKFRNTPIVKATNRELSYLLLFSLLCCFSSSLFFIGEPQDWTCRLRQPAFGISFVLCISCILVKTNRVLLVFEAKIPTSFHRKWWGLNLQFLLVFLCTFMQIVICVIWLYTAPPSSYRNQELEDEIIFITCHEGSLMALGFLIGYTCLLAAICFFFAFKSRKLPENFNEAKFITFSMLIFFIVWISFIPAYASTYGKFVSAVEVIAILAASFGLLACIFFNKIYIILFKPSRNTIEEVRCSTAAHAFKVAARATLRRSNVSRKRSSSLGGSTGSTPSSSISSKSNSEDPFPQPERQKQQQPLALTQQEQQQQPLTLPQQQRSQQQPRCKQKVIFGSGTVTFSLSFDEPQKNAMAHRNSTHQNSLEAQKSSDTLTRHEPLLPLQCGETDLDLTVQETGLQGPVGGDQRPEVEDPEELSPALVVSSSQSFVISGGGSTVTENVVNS
Kind of experiment: Inhibitory activity on calcium-sensing receptor (CaSR) using intracellular calcium increase as an indicator (FLIPR, CHO/hCaSR). Type of experiment: cell-based. Particulars: CHO/hCaSR cells; intracellular Ca increase induced by CaCl2; test compound 1.05 to 10,000 nM. The protocol: Evaluation of inhibitory activity on calcium-sensing receptor (CaSR) using intracellular calcium increase as an indicator
The preparation which is prepared by adding CHO/hCaSR to F12 medium (manufactured by Invitrogen) containing 10% fetal bovine serum to have 2×10^5 cells/mL was applied to a 384-well in an amount of 50 μL/well, and then incubated overnight in a CO2 incubator. The culture supernatant was completely removed, the assay buffer (20 mM HEPES, HBSS (Ca and Mg free) containing 2.5 mM probenecid, pH 7.4) containing Calcium 3 (manufactured by Molecular Devices), i.e., a fluorescent intracellular calcium indicator, was added thereto in an amount of 25 μL/well, and the mixture was maintained for 1 hour in a CO2 incubator. Meanwhile, Calcium 3 was prepared according to the protocol enclosed in FLIPR Calcium 3 Assay Kit (manufactured by Molecular Devices). After maintaining it for 1 hour, a solution in which the test compound is prepared to have 2.1 to 20,000 nM (final concentration of 1.05 to 10,000 nM) by an assay buffer was added thereto in an amount of 25 μL/well, and maintained for 15 minutes in a CO2 incubator. Then, the CaCl2 solution prepared to have […] by using the assay buffer was added in an amount of 25 μL/well, and the resulting intracellular Ca increase (i.e., fluorescence intensity) was measured over time using a fluorescence imaging plate reader (FLIPR, manufactured by Molecular Devices). From the data obtained, the difference between the fluorescence intensity before the addition of CaCl2 solution and the maximum fluorescence intensity after the addition of CaCl2 solution was calculated, and the 50% inhibition concentration (IC50) of the test compound was obtained.
For orientation: Calcium assays in cells follow changes in intracellular calcium, usually with a dye or a luminescent sensor.
On to `C[C@@H](OC[C@H](O)CNC(C)(C)CC1Cc2ccccc2C1)c1c(F)cccc1CCC(=O)O` [31 low polarity, 3-{2-[(1R)-1-{[(2R)-3-{[1-(2,3-dihydro-1H-inden-2-yl)-2-methylpropan-2-yl]amino}-2-hydroxypropyl]oxy}ethyl]-3-fluorophenyl}propanoic acid], for which the IC50 is at most 2400 nM.
For `C[C@@H](OC[C@H](O)CNC(C)(C)CC1Cc2ccccc2C1)c1ccccc1CCC(=O)O` [Example 1, 3-{2-[(1R)-1-{[(2R)-3-{[1-(2,3-Dihydro-1H-inden-2-yl)-2-methylpropan-2-yl]amino}-2-hydroxypropyl]oxy}ethyl]phenyl}propanoic acid], the IC50 is at most 2500 nM.
The value for `C[C@@H](OC[C@H](O)CNC(C)(C)CC1Cc2ccccc2C1)c1ccccc1CCCC(=O)O` [Example 2, 4-{2-[(1R)-1-{[(2R)-3-{[1-(2,3-Dihydro-1H-inden-2-yl)-2-methylpropan-2-yl]amino}-2-hydroxypropyl]oxy}ethyl]phenyl}butanoic acid] was at most 2420 nM.
Next, `Cc1cc(-c2ccccc2[C@@H](C)OC[C@H](O)CNC(C)(C)CC2Cc3ccccc3C2)ccc1C(=O)O` [Example 3, 2′-[(1R)-1-{[(2R)-3-{[1-(2,3-Dihydro-1H-inden-2-yl)-2-methylpropan-2-yl]amino}-2-hydroxypropyl]oxy}ethyl]-3-methylbiphenyl-4-carboxylic acid]: at most 2190 nM; `Cc1ccc([C@@H](C)OC[C@H](O)CNC(C)(C)CC2Cc3ccccc3C2)c(CCC(=O)O)c1` [Example 5, 3-{2-[(1R)-1-{[(2R)-3-{[1-(2,3-Dihydro-1H-inden-2-yl)-2-methylpropan-2-yl]amino}-2-hydroxypropyl]oxy}ethyl]-5-methylphenyl}propanoic acid]: at most 2420 nM; `Cc1ccc(CCC(=O)O)c([C@@H](C)OC[C@H](O)CNC(C)(C)CC2Cc3ccccc3C2)c1` [Example 6, 3-{2-[(1R)-1-{[(2R)-3-{[1-(2,3-Dihydro-1H-inden-2-yl)-2-methylpropan-2-yl]amino}-2-hydroxypropyl]oxy}ethyl]-4-methylphenyl}propanoic acid]: at most 2420 nM.
Next, `C[C@@H](OC[C@H](O)CNC(C)(C)CC1Cc2ccccc2C1)c1cccc(F)c1CCC(=O)O` [Example 7, 3-{2-[(1R)-1-{[(2R)-3-{[1-(2,3-Dihydro-1H-inden-2-yl)-2-methylpropan-2-yl]amino}-2-hydroxypropyl]oxy}ethyl]-6-fluorophenyl}propanoic acid]: at most 2400 nM; `C[C@@H](OC[C@H](O)CNC(C)(C)CC1Cc2ccccc2C1)c1ccc(F)cc1CCC(=O)O` [Example 8, 3-{2-[(1R)-1-{[(2R)-3-{[1-(2,3-Dihydro-1H-inden-2-yl)-2-methylpropan-2-yl]amino}-2-hydroxypropyl]oxy}ethyl]-5-fluorophenyl}propanoic acid]: at most 2400 nM; `C[C@@H](OC[C@H](O)CNC(C)(C)CC1Cc2ccccc2C1)c1cc(F)ccc1CCC(=O)O` [Example 9, 3-{2-[(1R)-1-{[(2R)-3-{[1-(2,3-Dihydro-1H-inden-2-yl)-2-methylpropan-2-yl]amino}-2-hydroxypropyl]oxy}ethyl]-4-fluorophenyl}propanoic acid]: at most 2400 nM.
For the compound `C[C@@H](OC[C@H](O)CNC(C)(C)CC1Cc2ccccc2C1)c1cccc(C(F)(F)F)c1CCC(=O)O` [Example 10, 3-{2-[(1R)-1-{[(2R)-3-{[1-(2,3-Dihydro-1H-inden-2-yl)-2-methylpropan-2-yl]amino}-2-hydroxypropyl]oxy}ethyl]-6-(trifluoromethyl)phenyl}propanoic acid], the IC50 was at most 2170 nM.
Next, `C[C@@H](OC[C@H](O)CNC(C)(C)CC1Cc2ccccc2C1)c1ccc(C(F)(F)F)cc1CCC(=O)O` [Example 11, 3-{2-[(1R)-1-{[(2R)-3-{[1-(2,3-Dihydro-1H-inden-2-yl)-2-methylpropan-2-yl]amino}-2-hydroxypropyl]oxy}ethyl]-5-(trifluoromethyl)phenyl}propanoic acid]: at most 2170 nM; `Cc1cc(-c2ccccc2[C@@H](C)OC[C@H](O)CNC2(CC3Cc4ccccc4C3)CC2)ccc1C(=O)O` [Example 12, 2′-[(1R)-1-{[(2R)-3-{[1-(2,3-Dihydro-1H-inden-2-ylmethyl)cyclopropyl]amino}-2-hydroxypropyl]oxy}ethyl]-3-methylbiphenyl-4-carboxylic acid]: at most 2200 nM; `C[C@@H](OC[C@H](O)CNC(C)(C)CC1Cc2ccccc2C1)c1ccccc1CCCCC(=O)O` [Example 13, 5-{2-[(1R)-1-{[(2R)-3-{[1-(2,3-Dihydro-1H-inden-2-yl)-2-methylpropan-2-yl]amino}-2-hydroxypropyl]oxy}ethyl]phenyl}pentanoic acid]: at most 2350 nM.
The value for `COc1ccc([C@@H](C)OC[C@H](O)CNC(C)(C)CC2Cc3ccccc3C2)c(CCC(=O)O)c1` [Example 16] was at most 2340 nM; that for `COc1cccc([C@@H](C)OC[C@H](O)CNC(C)(C)CC2Cc3ccccc3C2)c1CCC(=O)O` [Example 17] was at most 2340 nM; that for `CC[C@@H](OC[C@H](O)CNC(C)(C)CC1Cc2ccccc2C1)c1ccccc1CCC(=O)O` [Example 18] was at most 2420 nM.
The value for `CCC[C@@H](OC[C@H](O)CNC(C)(C)CC1Cc2ccccc2C1)c1ccccc1CCC(=O)O` [Example 21] was at most 2350 nM; that for `Cc1cc(CCC(=O)O)c([C@@H](C)OC[C@H](O)CNC(C)(C)CC2Cc3ccccc3C2)cc1F` [Example 22] was at most 2330 nM; that for `Cc1cc(CCCCC(=O)O)c([C@@H](C)OC[C@H](O)CNC(C)(C)CC2Cc3ccccc3C2)cc1F` [Example 23] was at most 2200 nM.
With `C[C@@H](OC[C@H](O)CNC(C)(C)CC1Cc2ccccc2C1)c1ccc(C#N)cc1CCC(=O)O` [Example 25], the IC50 is at most 2370 nM.
Next, `C[C@@H](OC[C@H](O)CNC(C)(C)CC1Cc2ccccc2C1)c1cc(F)c(F)cc1CCC(=O)O` [Example 26]: at most 2310 nM; `C[C@@H](OC[C@H](O)CNC(C)(C)CC1Cc2ccccc2C1)c1cc(F)cc(F)c1CCC(=O)O` [Example 27]: at most 2310 nM; `CC(C)(CC1Cc2ccccc2C1)NC[C@@H](O)CO[C@@H](c1ccccc1CCC(=O)O)C1CC1` [Example 29]: at most 2360 nM.
The value for `C[C@@H](OC[C@H](O)CNC(C)(C)CC1Cc2ccccc2C1)c1cc(F)c(F)cc1CCCCC(=O)O` [Example 30] was at most 2180 nM; that for `Cc1cccc(CCC(=O)O)c1C(C)OC[C@H](O)CNC(C)(C)CC1Cc2ccccc2C1` (stereo partly shown) [Example 32] was at most 2420 nM.
Turning to `CC(OC[C@H](O)CNC(C)(C)CC1Cc2ccccc2C1)c1c(Cl)cccc1CCC(=O)O` (stereo partly shown) [Example 33], the IC50 was at most 2320 nM.
Next, `C[C@@H](OC[C@H](O)CNC(C)(C)CC1Cc2ccccc2C1)c1cc(F)c(Cl)cc1CCC(=O)O` [Example 34]: at most 2240 nM.
Next, `COc1cc(F)cc([C@@H](C)OC[C@H](O)CNC(C)(C)CC2Cc3ccccc3C2)c1CCC(=O)O` [Example 35]: at most 2260 nM; `CC(OC[C@H](O)CNC(C)(C)CC1Cc2ccccc2C1)c1c(CCC(=O)O)ccc(F)c1F` (stereo partly shown) [Example 36]: at most 2310 nM.
Next, `COc1cccc([C@@H](C)OC[C@H](O)CNC(C)(C)CC2Cc3ccccc3C2)c1CCCCC(=O)O` [Example 37]: at most 2210 nM; `CC[C@@H](OC[C@H](O)CNC(C)(C)CC1Cc2ccccc2C1)c1cc(F)ccc1CCC(=O)O` [Example 38]: at most 2330 nM.
